According to the supplement of paper PMC10307832:

The cell lines below were run with C[C@]1(c2nc3c(C(N)=O)cccc3[nH]2)CCCN1 [Veliparib] + CS(=O)(=O)CCNCc1ccc(-c2ccc3ncnc(Nc4ccc(OCc5cccc(F)c5)c(Cl)c4)c3c2)o1 [Lapatinib] (partner 2 µM) (assay: relative viability (nuclei count vs DMSO), 5 days (fraction); higher = more cells survive). Details: first compound 0.02 µM.
Procedure, shortened: (§1)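 Lung cancer cell lines in 1536-well plates got either a single drug or a fixed anchor-drug dose together with five library-drug doses (not always all listed) in √10 steps, by pin tool, on the day after seeding. Nuclei were counted after 5 days, and relative viability is the treated-to-vehicle ratio of nuclei counts. Values are medians of duplicate plates.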
HCC-15 showed a relative viability of 0.706.
EMC-BAC-2 was tested, and the relative viability was 0.863.
Cell Line IA-LM has a relative viability of 0.85.
Work on NCI-H2009 yielded a relative viability of 0.748.
COR-L 105 gave a relative viability of 0.35.
In the case of NCI-H520, the relative viability is reported as 0.986.
With HCC-78 the relative viability was 0.762.
EKVX was tested, and the relative viability was 0.19.
EBC-1 showed a relative viability of 0.205.
NCI-H1299 gave a relative viability of 0.972.
Cell Line LK-2 has a relative viability of 0.637.
In the case of PC-14, the relative viability is reported as 0.279.
Cell Line LXF-289 has a relative viability of 0.903.
A549 was tested, and the relative viability was 1.12.
In the case of NCI-H1651, the relative viability is reported as 0.557.
For COR-L23, the relative viability was 0.795.
HCC-827 showed a relative viability of 0.199.
With RERF-LC-KJ the relative viability was 0.839.
With NCI-H1563 the relative viability was 0.695.
In the case of NCI-H3122, the relative viability is reported as 0.931.
With BEN the relative viability was 0.445.
Work on UMC-11 yielded a relative viability of 0.893.
LCLC-97TM1 showed a relative viability of 0.734.
NCI-H2085 was tested, and the relative viability was 0.473.
In the case of A-427, the relative viability is reported as 1.11.
Work on NCI-H727 yielded a relative viability of 0.388.
NCI-H838 showed a relative viability of 1.12.

Same assay, conditions: first compound 0.06325 µM
HCC-15 showed a relative viability of 0.893.
With NCI-H460 the relative viability was 0.866.
EMC-BAC-2 was tested, and the relative viability was 0.85.
With IA-LM the relative viability was 0.561.
Cell Line NCI-H2009 has a relative viability of 0.903.
COR-L 105 gave a relative viability of 0.371.
NCI-H1395 showed a relative viability of 0.76.
For NCI-H520, the relative viability was 0.859.
NCI-H358 gave a relative viability of 0.464.
HCC-78 was tested, and the relative viability was 0.837.
EKVX showed a relative viability of 0.203.
Work on EBC-1 yielded a relative viability of 0.21.
Work on NCI-H1299 yielded a relative viability of 0.944.
NCI-H1650 was tested, and the relative viability was 0.702.
Work on EPLC-272H yielded a relative viability of 0.71.
LK-2 gave a relative viability of 0.814.
PC-14 showed a relative viability of 0.367.
LXF-289 was tested, and the relative viability was 0.878.
For LC-2-ad, the relative viability was 0.813.
A549 gave a relative viability of 0.93.
For NCI-H1651, the relative viability was 0.755.
COR-L23 showed a relative viability of 0.81.
HCC-827 gave a relative viability of 0.191.
Work on RERF-LC-KJ yielded a relative viability of 0.82.
With NCI-H1563 the relative viability was 1.02.
For NCI-H3122, the relative viability was 1.05.
Work on BEN yielded a relative viability of 0.72.
UMC-11 showed a relative viability of 1.
LCLC-97TM1 gave a relative viability of 0.828.
For NCI-H2085, the relative viability was 0.684.
A-427 showed a relative viability of 1.
NCI-H727 gave a relative viability of 0.759.
In the case of NCI-H838, the relative viability is reported as 0.842.

Same assay, conditions: first compound 0.2 µM
For HCC-15, the relative viability was 0.779.
With NCI-H460 the relative viability was 0.909.
For EMC-BAC-2, the relative viability was 0.867.
For IA-LM, the relative viability was 0.771.
NCI-H2009 gave a relative viability of 0.909.
In the case of COR-L 105, the relative viability is reported as 0.327.
Work on NCI-H1395 yielded a relative viability of 0.874.
For NCI-H520, the relative viability was 0.912.
In the case of NCI-H358, the relative viability is reported as 0.503.
HCC-78 showed a relative viability of 0.652.
Cell Line EKVX has a relative viability of 0.217.
EBC-1 was tested, and the relative viability was 0.208.
For NCI-H1299, the relative viability was 0.951.
NCI-H1650 showed a relative viability of 0.855.
EPLC-272H gave a relative viability of 0.988.
For LK-2, the relative viability was 1.11.
For PC-14, the relative viability was 0.323.
For LXF-289, the relative viability was 0.897.
LC-2-ad was tested, and the relative viability was 0.967.
A549 was tested, and the relative viability was 0.978.
Cell Line NCI-H1651 has a relative viability of 0.92.
COR-L23 was tested, and the relative viability was 0.802.
In the case of HCC-827, the relative viability is reported as 0.182.
Work on RERF-LC-KJ yielded a relative viability of 0.853.
Work on NCI-H1563 yielded a relative viability of 0.976.
NCI-H3122 was tested, and the relative viability was 0.995.
With BEN the relative viability was 0.777.
With UMC-11 the relative viability was 0.841.
LCLC-97TM1 was tested, and the relative viability was 1.45.
In the case of NCI-H2085, the relative viability is reported as 0.677.
Work on A-427 yielded a relative viability of 0.994.
NCI-H727 showed a relative viability of 0.9.
In the case of NCI-H838, the relative viability is reported as 0.902.

Same assay, conditions: first compound 0.6325 µM
Work on HCC-15 yielded a relative viability of 0.849.
With NCI-H460 the relative viability was 0.904.
For EMC-BAC-2, the relative viability was 0.86.
IA-LM showed a relative viability of 0.846.
NCI-H2009 was tested, and the relative viability was 0.815.
With COR-L 105 the relative viability was 0.362.
NCI-H1395 was tested, and the relative viability was 0.716.
NCI-H520 gave a relative viability of 0.733.
Cell Line NCI-H358 has a relative viability of 0.393.
HCC-78 was tested, and the relative viability was 0.849.
EKVX gave a relative viability of 0.201.
EBC-1 showed a relative viability of 0.201.
NCI-H1299 showed a relative viability of 0.956.
NCI-H1650 gave a relative viability of 0.739.
With EPLC-272H the relative viability was 1.1.
LK-2 gave a relative viability of 0.877.
PC-14 was tested, and the relative viability was 0.28.
With LXF-289 the relative viability was 0.904.
With LC-2-ad the relative viability was 0.94.
A549 was tested, and the relative viability was 0.869.
Cell Line NCI-H1651 has a relative viability of 0.835.
Work on COR-L23 yielded a relative viability of 0.982.
HCC-827 was tested, and the relative viability was 0.177.
With RERF-LC-KJ the relative viability was 0.813.
NCI-H1563 was tested, and the relative viability was 0.978.
NCI-H3122 gave a relative viability of 0.994.
BEN was tested, and the relative viability was 0.824.
Work on UMC-11 yielded a relative viability of 1.09.
NCI-H2085 showed a relative viability of 0.782.
In the case of A-427, the relative viability is reported as 1.04.
With NCI-H727 the relative viability was 0.876.
NCI-H838 was tested, and the relative viability was 0.847.

Same assay, conditions: first compound 2 µM
For HCC-15, the relative viability was 0.891.
With NCI-H460 the relative viability was 1.01.
EMC-BAC-2 showed a relative viability of 0.884.
Cell Line IA-LM has a relative viability of 1.04.
NCI-H2009 showed a relative viability of 1.03.
COR-L 105 gave a relative viability of 0.388.
NCI-H1395 gave a relative viability of 0.83.
NCI-H520 gave a relative viability of 0.858.
In the case of NCI-H358, the relative viability is reported as 0.452.
HCC-78 showed a relative viability of 0.566.
EKVX gave a relative viability of 0.231.
With EBC-1 the relative viability was 0.244.
Work on NCI-H1299 yielded a relative viability of 0.978.
NCI-H1650 showed a relative viability of 0.718.
EPLC-272H gave a relative viability of 0.877.
LK-2 showed a relative viability of 0.643.
For PC-14, the relative viability was 0.315.
In the case of LXF-289, the relative viability is reported as 0.928.
Work on LC-2-ad yielded a relative viability of 0.951.
With A549 the relative viability was 0.957.
For NCI-H1651, the relative viability was 0.775.
In the case of COR-L23, the relative viability is reported as 0.978.
HCC-827 was tested, and the relative viability was 0.191.
Cell Line RERF-LC-KJ has a relative viability of 0.854.
With NCI-H1563 the relative viability was 0.987.
For NCI-H3122, the relative viability was 1.07.
With BEN the relative viability was 0.81.
With UMC-11 the relative viability was 1.07.
Cell Line LCLC-97TM1 has a relative viability of 1.22.
With NCI-H2085 the relative viability was 0.637.
Work on A-427 yielded a relative viability of 0.802.
NCI-H727 gave a relative viability of 0.734.
In the case of NCI-H838, the relative viability is reported as 0.979.

Each cell line was assayed with COC1=CC=C(C=C1)CN2C=CC3=C2C=C(C=C3)C(=O)NO + CS(=O)(=O)N1CCN(Cc2cc3nc(-c4cccc5[nH]ncc45)nc(N4CCOCC4)c3s2)CC1 [Pictilisib] (partner 1 µM) in the same assay as above. Details: first compound 0.08 µM.
Procedure, shortened: as §1
HCC-15 was tested, and the relative viability was 0.522.
